Target: T1, Human TREM2 (Homo sapiens, UniProt Q9NZC2)
T1 construct: expressed in transfected cells
Assay: Human TREM2 cellular phospho-Syk AlphaLISA assay in HEK293/DAP12+TREM2 stable cell line
Type: cell-based
Conditions: HEK293/DAP12+TREM2 cells; for Emax: maximal response relative to the maximal response of the reference agonist, phospho-Syk AlphaLISA; for EC50: phospho-Syk (Tyr525/526) AlphaLISA signal, 30 min incubation
Text: Human TREM2, in vitro Measurement of Triggering Receptor Expressed on Myeloid Cells 2 activity using cellular phosphorylation of Spleen Tyrosine Kinase (“Syk”) Assay
HEK-293 cells were co-transfected with separate plasmids encoding TREM2 and DAP12 to generate a stable cell line. After antibiotic selection, functional clone pool analysis and two successive limiting dilutions, the final clone “HEK293/DAP12+TREM2” underwent a qPCR analysis and a pharmacological validation.
TREM2 signaling through DAP12 was monitored in the HEK293/DAP12+TREM2 stable cell line by measuring the phosphorylation levels of the Syk kinase using the commercially available AlphaLISA SureFire Ultra p-SYK (Tyr525/526) Assay Kit (PerkinElmer #ALSU-PSYK), based on the Perkin Elmer AlphaScreen/AlphaLISA technology.
Compounds are transferred to the test plate and tested in full dose response, 8 concentrations in quadruplicate data points. Compound serial dilutions were performed at Cybi-Felix instrument in 100% DMSO and the dose response curves were assembled in automated fashion in 384MPT at Hamilton STARlet instrument. All the stock solutions were prepared at 20 mM in 100% DMSO. For compounds testing, the starting concentration was 100 μM, dilution steps 1:6. A different concentration's range was adapted for compound's activity based on the preliminary results. Finally, a 384MPT reformatted for all compounds at 8 concentrations, quadruplicates, was used as “mother to child” process with a CyBi@-Well dispenser in which 1 μL of each compound was moved into a destination plate pre-filled with […] of EMEM cell culture medium (BIOWHITTAKER_cat.BE12-125F), thus obtaining 3× concentrated compounds working solution. In columns 1-2 and 23-24 the control wells were added. In particular, dose response curves of a reference control agonist were included in column 1 and 24 as reference control agonist (Reference control agonists used include Human TREM2 polyclonal Antibody AF1828: R&D Systems; Human TREM2 monoclonal Antibody MAB1828: R&D Systems). The dose response curves were tested starting at 30 μM, dilution step 1:6. Both “source” compound plate and “destination” compound plate were barcoded and a relationship between the two plates was thus generated.
HEK293/DAP12+TREM2 cells were cultured in EMEM medium supplemented with IX Penicillin/Streptomycin (BIOWHITTAKER_cat.DE17-602E), ULTRAGLUTAMINE I 200 mM, 10% Fetal Bovine Serum plus antibiotics referred to as “HEK293 Culture Medium”. The day before the experiment, cells were detached by gentle wash with DPBS, followed by 5 min incubation at 37° C. with Trypsin solution. Cells were then diluted in HEK293 Culture Medium without antibiotics, counted and seeded into 384-well poly-D-Lysine coated microplates black/clear bottom (GREINER 781946) at a density of 10,000 cells/well in 25 μL/well by the use of a MATRIX WellMate dispenser. Plates were placed into a humidified cell culture incubator at 37° C. with 5% CO2 until the experimental day. 20-24 hours after seeding mature medium was removed and replaced with 10 μL/well of EMEM cell medium supplemented with 0.1% Pluronic F-68 non-ionic surfactant (Thermofisher, 24040032), referred to as “Assay Buffer”, using the CyBi@-Well instrument. Then 5 μL/well of Assay Buffer containing 3× concentrated test compounds or the reference control agonist (in 0.5% final DMSO concentration) were added to the cells with the CyBi@-Well instrument. Cell plates were incubated for 30 min into a humidified cell culture incubator at 37° C. with 5% CO2, then the medium was removed by manually discard. 20 μL/well of lysis buffer were dispensed using the CyBi@-Well instrument and plates were incubated for 10 min at room temperature on a plate shaker (350 rpm). Then, 10 μL/well of lysate were transferred to the Alpha plates.
The CyBi@-Well instrument was used to dispense 5 μL/well of AlphaLISA Acceptor Bead Solution in IX Immunoassay buffer (Perkin Elmer AL000F). […]

T1 sequence (Q9NZC2 19-230): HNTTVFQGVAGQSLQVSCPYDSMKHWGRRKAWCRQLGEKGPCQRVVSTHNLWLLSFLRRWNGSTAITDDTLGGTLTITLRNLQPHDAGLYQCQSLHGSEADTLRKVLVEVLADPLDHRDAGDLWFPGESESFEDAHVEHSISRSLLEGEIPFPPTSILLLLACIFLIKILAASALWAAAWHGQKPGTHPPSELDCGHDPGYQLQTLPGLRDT
T1 sequence (O43914 22-113 partner): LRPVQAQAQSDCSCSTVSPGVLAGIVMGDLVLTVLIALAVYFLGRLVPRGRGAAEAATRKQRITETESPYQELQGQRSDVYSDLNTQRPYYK

| Emax [%] | EC50 [nM] | Compound |
| --- | --- | --- |
| 75 to 110 | 10 to 100 | CC(C)n1cc(OC2CN(c3nc(-c4ccc(C#N)cc4F)c4nc(C(F)(F)F)n(C)c(=O)c4n3)C2)cn1 [Example 11, 3-fluoro-4-(2-(3-((1-isopropyl-1H-pyrazol-4-yl)oxy)azetidin-1-yl)-7-methyl-8-oxo-6-(trifluoromethyl)-7,8-dihydropyrimido[5,4-d]pyrimidin-4-yl)benzonitrile] |
| 75 to 110 | 100 to 1000 | CCCn1cc(OC2CN(c3nc(-c4ccc(C#N)cc4F)c4nc(C(F)(F)F)n(C)c(=O)c4n3)C2)cn1 [Example 12, 3-fluoro-4-(7-methyl-8-oxo-2-(3-((1-propyl-1H-pyrazol-4-yl)oxy)azetidin-1-yl)-6-(trifluoromethyl)-7,8-dihydropyrimido[5,4-d]pyrimidin-4-yl)benzonitrile] |
| 75 to 110 | 100 to 1000 | Cn1ncc(OC2CN(c3nc(-c4ccc(C#N)cc4F)c4nc(C(F)(F)F)n(C)c(=O)c4n3)C2)c1Cl [Example 13, 4-(2-(3-((5-chloro-1-methyl-1H-pyrazol-4-yl)oxy)azetidin-1-yl)-7-methyl-8-oxo-6-(trifluoromethyl)-7,8-dihydropyrimido[5,4-d]pyrimidin-4-yl)-3-fluorobenzonitrile] |
| 75 to 110 | 10 to 100 | Cn1c(C(F)(F)F)nc2c(-c3ccc(C#N)cc3F)nc(N3CC(Oc4cnn(C(F)F)c4)C3)nc2c1=O [Example 14, 4-(2-(3-((1-(difluoromethyl)-1H-pyrazol-4-yl)oxy)azetidin-1-yl)-7-methyl-8-oxo-6-(trifluoromethyl)-7,8-dihydropyrimido[5,4-d]pyrimidin-4-yl)-3-fluorobenzonitrile] |
| > 110 | 10 to 100 | Cn1c(C(F)(F)F)nc2c(-c3ccc(C#N)cc3F)nc(N3CC(Oc4cnn(CC5CC5)c4)C3)nc2c1=O [Example 15, 4-(2-(3-((1-(cyclopropylmethyl)-1H-pyrazol-4-yl)oxy)azetidin-1-yl)-7-methyl-8-oxo-6-(trifluoromethyl)-7,8-dihydropyrimido[5,4-d]pyrimidin-4-yl)-3-fluorobenzonitrile] |
| 75 to 110 | 10 to 100 | Cn1c(C(F)(F)F)nc2c(-c3ccc(C#N)cc3F)nc(N3CC(Oc4cnn(C5CCC5)c4)C3)nc2c1=O [Example 16, 4-(2-(3-((1-cyclobutyl-1H-pyrazol-4-yl)oxy)azetidin-1-yl)-7-methyl-8-oxo-6-(trifluoromethyl)-7,8-dihydropyrimido[5,4-d]pyrimidin-4-yl)-3-fluorobenzonitrile] |
| 75 to 110 | 100 to 1000 | Cn1c(C(F)(F)F)nc2c(-c3ccc(C#N)cc3F)nc(N3CC(Oc4cnn(CC(F)F)c4)C3)nc2c1=O [Example 17, 4-(2-(3-((1-(2,2-difluoroethyl)-1H-pyrazol-4-yl)oxy)azetidin-1-yl)-7-methyl-8-oxo-6-(trifluoromethyl)-7,8-dihydropyrimido[5,4-d]pyrimidin-4-yl)-3-fluorobenzonitrile] |
| 75 to 110 | < 10 | Cn1c(C(F)(F)F)nc2c(-c3ccc(C#N)cc3F)nc(N3CC(Oc4cnn(C5CCCC5)c4)C3)nc2c1=O [Example 18, 4-(2-(3-((1-cyclopentyl-1H-pyrazol-4-yl)oxy)azetidin-1-yl)-7-methyl-8-oxo-6-(trifluoromethyl)-7,8-dihydropyrimido[5,4-d]pyrimidin-4-yl)-3-fluorobenzonitrile] |
| 75 to 110 | 10 to 100 | Cn1c(C(F)(F)F)nc2c(-c3ccc(C#N)cc3F)nc(N3CC(Oc4cnn(CC(F)(F)F)c4)C3)nc2c1=O [Example 19, 3-fluoro-4-(7-methyl-8-oxo-2-(3-((1-(2,2,2-trifluoroethyl)-1H-pyrazol-4-yl)oxy)azetidin-1-yl)-6-(trifluoromethyl)-7,8-dihydropyrimido[5,4-d]pyrimidin-4-yl)benzonitrile] |

From US12459952B2, “TREM2 modulators” (Muna Therapeutics ApS, priority 2024, dated 2025)
